Experiments:
[1] = target: T1, Dld2 (D-lactate dehydrogenase 2) (Saccharomyces cerevisiae, UniProt P46681); experiment: stopped-flow flavin reduction, hyperbolic fit; type: biochemical; details: anaerobic reductive half reaction; 50 mM HEPES, 150 mM NaCl pH 7, 25 °C; 450 nm; fast (first) phase of reduction
T1 construct: produced in Komagataella phaffii KM71H, purified
T1 sequence (P46681 1-530): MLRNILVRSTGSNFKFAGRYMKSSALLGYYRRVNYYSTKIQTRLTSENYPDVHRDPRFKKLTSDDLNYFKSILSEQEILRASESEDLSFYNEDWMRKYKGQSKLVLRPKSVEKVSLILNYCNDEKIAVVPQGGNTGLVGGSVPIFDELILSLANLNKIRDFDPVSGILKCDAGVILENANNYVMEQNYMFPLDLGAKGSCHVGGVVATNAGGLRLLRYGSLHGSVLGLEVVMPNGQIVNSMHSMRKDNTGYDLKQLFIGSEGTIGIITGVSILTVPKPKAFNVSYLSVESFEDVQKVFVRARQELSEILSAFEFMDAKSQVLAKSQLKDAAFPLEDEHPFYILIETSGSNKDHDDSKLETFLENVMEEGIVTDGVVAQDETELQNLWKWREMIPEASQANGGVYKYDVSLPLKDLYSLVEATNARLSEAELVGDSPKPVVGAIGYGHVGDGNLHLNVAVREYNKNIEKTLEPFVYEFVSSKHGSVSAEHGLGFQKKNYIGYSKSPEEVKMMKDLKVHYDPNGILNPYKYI
Excerpt: stopped-flow flavin reduction, hyperbolic fit on Dld2 (D-lactate dehydrogenase 2)

[2] = target: T2, hETF (ETF from Homo sapiens) (Homo sapiens, UniProt P13804+P38117); experiment: UV-visible photoreduction of bound flavin; type: binding; details: co-purified cofactor; 50 mM HEPES pH 7, 1 mM DTT, anaerobic
T2 construct: gene ETFA
T2 sequence (P13804 20-333): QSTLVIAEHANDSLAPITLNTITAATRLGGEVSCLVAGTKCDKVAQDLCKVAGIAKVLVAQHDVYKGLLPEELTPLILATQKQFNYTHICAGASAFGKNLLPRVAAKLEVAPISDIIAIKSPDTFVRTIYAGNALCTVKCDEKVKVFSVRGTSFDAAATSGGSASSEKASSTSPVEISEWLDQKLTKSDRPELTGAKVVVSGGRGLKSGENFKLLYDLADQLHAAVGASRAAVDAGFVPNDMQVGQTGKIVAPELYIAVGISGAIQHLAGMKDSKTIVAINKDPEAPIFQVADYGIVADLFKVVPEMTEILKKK
T2 sequence (P38117 2-255): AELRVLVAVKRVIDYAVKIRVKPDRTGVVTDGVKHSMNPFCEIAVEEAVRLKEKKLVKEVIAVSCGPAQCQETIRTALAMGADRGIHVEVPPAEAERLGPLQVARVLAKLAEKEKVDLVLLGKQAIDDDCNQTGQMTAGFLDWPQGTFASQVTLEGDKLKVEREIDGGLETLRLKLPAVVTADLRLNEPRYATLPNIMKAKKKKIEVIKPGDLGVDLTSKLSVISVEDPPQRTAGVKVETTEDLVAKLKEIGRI

[3] = target: T3, yETF (electron-transferring flavoprotein of Saccharomyces cerevisiae) (Saccharomyces cerevisiae, UniProt P42940+Q12480); experiment: UV-visible spectrum, native vs SDS-denatured; HPLC-DAD; type: binding; details: co-purified cofactor; 50 mM HEPES pH 7, 1 mM DTT, 25 °C
T3 construct: gene AIM45; heterodimer (alpha 38 kDa, beta 37 kDa), N-terminal hexahistidine tag on beta subunit (pETM11-His TEV), produced in E. coli Rosetta (DE3)-pLysS
T3 sequence (Q12480 15-344): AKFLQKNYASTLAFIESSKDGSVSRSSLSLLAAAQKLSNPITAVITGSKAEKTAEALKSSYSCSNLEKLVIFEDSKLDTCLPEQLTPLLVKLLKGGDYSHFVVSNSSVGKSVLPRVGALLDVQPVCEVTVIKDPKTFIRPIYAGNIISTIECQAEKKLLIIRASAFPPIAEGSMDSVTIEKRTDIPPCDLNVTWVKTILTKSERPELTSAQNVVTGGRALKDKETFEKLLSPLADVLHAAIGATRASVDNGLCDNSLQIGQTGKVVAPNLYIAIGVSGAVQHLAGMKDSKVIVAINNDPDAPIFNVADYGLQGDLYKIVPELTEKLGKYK
T3 sequence (P42940 1-261): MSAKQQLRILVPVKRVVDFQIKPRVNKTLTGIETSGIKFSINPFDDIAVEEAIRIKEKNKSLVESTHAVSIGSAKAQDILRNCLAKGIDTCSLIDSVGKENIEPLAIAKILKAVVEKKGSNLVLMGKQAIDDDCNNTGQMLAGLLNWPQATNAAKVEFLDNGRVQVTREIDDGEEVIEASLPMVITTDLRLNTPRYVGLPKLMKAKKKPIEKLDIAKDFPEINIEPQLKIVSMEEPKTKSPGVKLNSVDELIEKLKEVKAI

[4] = target: T4, hETF (ETF from Homo sapiens) (Homo sapiens, UniProt P13804+P38117, P38117:Y16F); experiment: UV-visible photoreduction of bound flavin; type: binding; details: co-purified cofactor; 50 mM HEPES pH 7, 1 mM DTT, anaerobic
T4 construct: gene ETFA
T4 sequence (P13804 20-333): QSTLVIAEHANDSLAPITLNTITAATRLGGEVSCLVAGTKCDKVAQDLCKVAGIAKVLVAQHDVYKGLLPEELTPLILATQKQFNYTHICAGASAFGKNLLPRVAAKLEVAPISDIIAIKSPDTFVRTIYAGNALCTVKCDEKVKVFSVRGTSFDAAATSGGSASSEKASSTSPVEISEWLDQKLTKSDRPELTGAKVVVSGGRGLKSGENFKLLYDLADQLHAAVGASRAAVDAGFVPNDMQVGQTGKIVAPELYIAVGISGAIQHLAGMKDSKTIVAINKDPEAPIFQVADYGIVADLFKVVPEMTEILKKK
T4 sequence (P38117 2-255 Y16F): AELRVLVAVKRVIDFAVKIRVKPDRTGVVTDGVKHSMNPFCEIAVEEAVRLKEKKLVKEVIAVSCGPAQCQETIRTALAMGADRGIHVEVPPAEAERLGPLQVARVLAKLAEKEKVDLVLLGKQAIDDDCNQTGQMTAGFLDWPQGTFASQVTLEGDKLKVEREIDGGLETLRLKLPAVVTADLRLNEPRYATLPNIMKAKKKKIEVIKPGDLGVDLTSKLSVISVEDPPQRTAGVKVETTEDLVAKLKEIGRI

[5] = substrate: O=C(O)CC[C@@H](O)C(=O)O; experiment: purified protein; type: biochemical, Saccharomyces cerevisiae; details: 125 µM 2,6-dichlorophenol indophenol as acceptor, aerobic, 50 mM HEPES, 150 mM NaCl pH 7, 25 °C, apparent

How did the Kd [1] turn out when C[C@@H](O)C(=O)O [D‐lactate] was run?
Its Kd is 15 ± 1 mM.

Which “UV-visible photoreduction of bound flavin” value [2] does the source give for Cc1cc2nc3c(=O)[nH]c(=O)nc-3n(C[C@H](O)[C@H](O)[C@H](O)COP(=O)(O)OP(=O)(O)OC[C@H]3O[C@@H](n4cnc5c(N)ncnc54)[C@H](O)[C@@H]3O)c2cc1C [FAD] here?
Its value is “hETF wild‐type (C), and hETF‐βTyr16Phe (D) in the course of the photoreduction: oxidized FAD”.

What about the “UV-visible spectrum, native vs SDS-denatured; HPLC-DAD” value [3] of the same molecule?
Its value is “absorption spectrum of denatured yETF further indicate the presence of an FAD chromophore”.

And the “UV-visible photoreduction of bound flavin” value [4]?
Its value is “hETF‐βTyr16Phe (D) in the course of the photoreduction: oxidized FAD”.

B1: Dld2 (D-lactate dehydrogenase 2) (Saccharomyces cerevisiae S288C) (protein)
chain: MLRNILVRSTGSNFKFAGRYMKSSALLGYYRRVNYYSTKIQTRLTSENYPDVHRDPRFKKLTSDDLNYFKSILSEQEILRASESEDLSFYNEDWMRKYKGQSKLVLRPKSVEKVSLILNYCNDEKIAVVPQGGNTGLVGGSVPIFDELILSLANLNKIRDFDPVSGILKCDAGVILENANNYVMEQNYMFPLDLGAKGSCHVGGVVATNAGGLRLLRYGSLHGSVLGLEVVMPNGQIVNSMHSMRKDNTGYDLKQLFIGSEGTIGIITGVSILTVPKPKAFNVSYLSVESFEDVQKVFVRARQELSEILSAFEFMDAKSQVLAKSQLKDAAFPLEDEHPFYILIETSGSNKDHDDSKLETFLENVMEEGIVTDGVVAQDETELQNLWKWREMIPEASQANGGVYKYDVSLPLKDLYSLVEATNARLSEAELVGDSPKPVVGAIGYGHVGDGNLHLNVAVREYNKNIEKTLEPFVYEFVSSKHGSVSAEHGLGFQKKNYIGYSKSPEEVKMMKDLKVHYDPNGILNPYKYI
notes: produced in Komagataella phaffii KM71H, purified
Which Km [5] does the source give for B1 here?
The Km was 350 ± 50 µM.

What about the kcat [5] of the same molecule?
The kcat was 0.42 ± 0.02 s⁻¹.

What about the kcat/Km [5] of the same molecule?
The kcat/Km was 1200 ± 300 M⁻¹ s⁻¹.
